The OPERA property sets (Mansouri et al. 2018)

Conditions: 25.0 °C

Row | Compound | log10 OH rate constant (cm³/molecule/s)
1 | Fc1ccccc1 | -12.2
2 | CCF | -12.6
3 | O=[N+]([O-])c1ccc2ccccc2c1 | -11.3
4 | Ic1ccccc1 | -12
5 | CC=C=O | -10.2
6 | O=C1CCCCC1 | -11.2
7 | Cc1ccccc1[N+](=O)[O-] | -12.2
8 | CNC | -10.2
9 | C=C(C)C=O | -10.5
10 | C1CCCCCC1 | -10.9
11 | Cc1cccc(C)c1 | -10.6
12 | CCOCCOC(C)=O | -10.9
13 | Oc1ccc(Cl)cc1Cl | -12
14 | Cc1cccc([N+](=O)[O-])c1 | -12
15 | FC(F)(F)c1ccccc1 | -12.3
16 | COO | -11.3
17 | Sc1ccccc1 | -11
18 | CCCS | -10.3
19 | C1CC2CCC1C2 | -11.3
20 | ClC(Cl)(Cl)Cl | < -15.9
21 | CN(C)c1ccccc1 | -9.83
22 | C1=Cc2cccc3cccc1c23 | -9.96

Row | Compound | log10 OH rate constant (cm³/molecule/s)
23 | COP(=S)(OC)SC | -10.3
24 | Cc1ccccc1 | -11.2
25 | O=CO | -12.3
26 | O=CC=O | -10.9
27 | Clc1ccc(Cl)c2ccccc12 | -11.2
28 | C=C(C)C(=C)C | -9.91
29 | C=C | -11.1
30 | C1CCSC1 | -10.7
31 | BrCCBr | -12.6
32 | c1ccc2occc2c1 | -10.4
33 | FCCF | -13
34 | Clc1ccccc1Cl | -12.4
35 | CCC(C)=O | -11.9
36 | CS | -10.5
37 | CC(=O)C(C)(C)C | -11.9
38 | COP(N)(=S)OC | -9.61
39 | C=CC(C)=O | -10.7
40 | C1COC1 | -11
41 | C1=CCCCC1 | -10.2
42 | C=CC=O | -10.7
43 | c1ccc2c(c1)Cc1ccccc1-2 | -10.9

Second part, the molecule after the results:

Row | log10 OH rate constant (cm³/molecule/s) | Compound
44 | -10.9 | CCOC(C)(C)OCC
45 | -11.4 | CC(C)CC(C)(C)C
46 | -9.9 | CC1=CC[C@@H](C(C)C)CC1
47 | -11 | CCCCOC(=O)CCC
48 | -9.99 | C=C/C=C\C
49 | -11.7 | C/C=N/O
50 | -13 | OCC(F)(F)F
51 | -11.2 | CCC(C)CC
52 | -10.8 | CCOCOCC
53 | -10.3 | C=C(C)C
54 | -11.6 | CCC(C)(C)C
55 | -10.6 | CC(C)COCC(C)C
56 | -10.4 | C=C=CCC
57 | -9.77 | C=C1C=CC(C(C)C)CC1 (centres undefined)
58 | -10.6 | O=CCCCC=O
59 | -10.3 | CCCCS
60 | -10.7 | CCc1cccc(C)c1
61 | -11.6 | CCCC
62 | -10.3 | CCC(C)CS (centres undefined)

Row | log10 OH rate constant (cm³/molecule/s) | Compound
63 | -9.96 | c1cc[nH]c1
64 | -10.8 | CCCCCCCCCCCCC
65 | -11.2 | CCCc1ccccc1
66 | -11.3 | CCCCC(C)(C)C
67 | -11.3 | CC(C)C(=O)C(C)C
68 | -11.1 | COC(C)OC
69 | -11.1 | OCCO
70 | -10.8 | CCSCC
71 | -11 | O=CCO
72 | -10.3 | CCS
73 | -10.5 | CC(C)(C)S
74 | -10.7 | CCOCCCO
75 | -11.4 | CCCCC
76 | -10.9 | CCCCC(C)O (centres undefined)
77 | -10.9 | CC(=O)CC(C)C
78 | -11.3 | CC(C)CC(C)C
79 | -10.6 | CC(C)CC=O
80 | -9.67 | C=CC(=C)CCC=C(C)C
81 | -11.5 | CCCC(C)(C)C

Row | log10 OH rate constant (cm³/molecule/s) | Compound
82 | -14 | FCF
83 | -14.8 | CC(F)(F)F
84 | -11.1 | CCCCCCCC
85 | -10.7 | CCCCOCCO
86 | -11.1 | C#CCC
87 | -11.4 | CCC(C)C
88 | -10.3 | C=C(C)c1ccccc1
89 | -10.6 | OCc1ccccc1
90 | -11.2 | C#CC
91 | -11 | C#CCCC
92 | -10.4 | CC(C)S
93 | -11.5 | CC(=O)CO
94 | -11.3 | CC(C)(C)c1ccccc1
95 | -9.87 | C=C(C)C=CC
96 | -10.3 | Cc1cccc2ccccc12
97 | -10.8 | C1CC2CCC1CC2
98 | -10.7 | COCCC(OC)OC
99 | -11.8 | CCOC(C)=O
